# Read-outs that look alike come from different tables or passages of the source. No end group written: not given here.
# How the values were obtained:
# HLA-A24 = assay type: binding, human
# HLA-A3.2 (A*0301) = HLA-A3.2 (A*0301) (Homo sapiens, UniProt P04439); test: biochemical; assay type: binding
# A31 (A*3101) = A31 (A*3101) (Homo sapiens, UniProt P04439, A270S/D185E/E176V/E277Q/F33T/G231S/G80R/H175R/I121M/I218V/I322F/K168Q/L300P/L318F/M331R/P217A/Q94H/R138Q/T323A/T345S/T97I/V358M); test: biochemical; assay type: binding
# A*3301 = A*3301 (Homo sapiens, UniProt P04439, A270S/D185E/E176V/E277Q/E87N/F33T/G231S/H175R/I121M/I218V/I322F/K168Q/K210R/L300P/L318F/M331R/P217A/Q86R/Q94H/R138Q/T323A/T345S/T97I/V358M/Y195H); test: biochemical; assay type: binding
# A*6801 = A*6801 (Homo sapiens, UniProt P04439, A269V/D185E/E176V/E277Q/E87N/F33Y/G231S/I121M/I166T/I218V/L180W/L300P/L318F/N151K/P208A/P217A/Q86R/R169H/T345S); test: biochemical; assay type: binding
# HLA-A1 (A*0101) = HLA-A1 (A*0101) (Homo sapiens, UniProt P04439, A114D/A174V/A182V/D101N/D185E/E176A/E190D/L180R/Q94H/R68K/S129P/T187R/V100A/V91M/W191G); test: biochemical; assay type: binding
# A*2601 = A*2601 (Homo sapiens, UniProt P04439, A114D/A173T/A270S/D101N/D185E/E277Q/E87N/F33Y/G231S/I121R/I218V/K168Q/L180W/L300P/L318F/P208A/P217A/Q86R/Q94H/R138Q/S129P/T187R/T323A/T345S/V100A/V358M); test: biochemical; assay type: binding
# A*2902 [1] = biological target: T1, A*2902 (Homo sapiens, UniProt P04439, A270S/D101N/D185E/E176V/E277Q/E87Q/F33T/G231S/H175R/I121M/I218V/I322F/K168Q/L300P/L318F/M331R/P208A/P217A/Q86L/T323A/T345S/V100A/V358M); test: biochemical; assay type: binding
# A*3002 [2] = biological target: T2, A*3002 (Homo sapiens, UniProt P04439, D101N/D140H/D185E/E176R/F33S/G80R/H175R/K168Q/Q94H/R138E/R41S/V100E); test: biochemical; assay type: binding
# A*2902 [3] = biological target: T1, A*2902; test: biochemical; assay type: binding; remark: listed apart in the source
# A*3002 [4] = biological target: T2, A*3002; test: biochemical; assay type: binding; remark: listed apart in the source
# HLA-A11 (A*1101) = HLA-A11 (A*1101) (Homo sapiens, UniProt P04439, A114D/D185E/E176A/F33Y/L180Q/S129P/T187R); test: biochemical; assay type: binding
# T2 sequence (P04439 whole entry, looked up, the tested form may be a part, stated change not applied): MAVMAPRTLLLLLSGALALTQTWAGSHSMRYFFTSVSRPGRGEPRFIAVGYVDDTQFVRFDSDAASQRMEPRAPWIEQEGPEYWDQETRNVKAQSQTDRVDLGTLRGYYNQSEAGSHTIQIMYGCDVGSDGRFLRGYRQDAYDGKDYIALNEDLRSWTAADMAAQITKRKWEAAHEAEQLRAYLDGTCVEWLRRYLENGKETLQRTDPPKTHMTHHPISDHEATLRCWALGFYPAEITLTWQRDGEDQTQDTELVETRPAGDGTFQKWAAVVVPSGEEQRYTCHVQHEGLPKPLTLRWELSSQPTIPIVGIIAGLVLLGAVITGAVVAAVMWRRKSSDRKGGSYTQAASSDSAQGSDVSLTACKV
Sequence,IC50 (HLA-A1 (A*0101)) [nM],IC50 (A*2902 [3]) [nM],IC50 (A*3002 [4]) [nM],other results
LVFGIELMEV,,,,binding to HLA-A24 (column 6; no allele head shown for these rows) (HLA-A24): 0
KQNPDIVIY [Peptide 1595.10],> 20000,,,IC50 (HLA-A3.2 (A*0301)): 3800 nM; IC50 (A31 (A*3101)): 4.55 µM; IC50 (A*3301): > 20 µM; IC50 (A*6801): > 20 µM; IC50 (A*2601): > 20000 nM; IC50 (A*2902 [1]): > 20000 nM; IC50 (A*3002 [2]): 7.4 nM
AALSRKVAEL,,,,binding to HLA-A24 (column 6; no allele head shown for these rows) (HLA-A24): 0
QAEQATSNYY [Peptide 78.0022],,> 20000,1440,
EYRHYQYSLY [Peptide 78.0183],2270,2370,130,
RFHNIGGRW [Peptide 78.0369],> 20000,12200,13,
KALKFYSKI [Peptide E6-72],,,,binding class for HLA-A24 (HLA-A24): high affinity (key: high affinity: >0.1; intermediate affinity: 0.1-0.01; low affinity: 0.01-0.001)
FYSKVRKYRY [Peptide 78.0176],> 20000,146,326,
YSDREIIY [Peptide 9012.0096],93,> 20000,,
LYPEPTDLY [Peptide 78.0354],> 20000,,1470,
ATLERTEVY [Peptide 78.0252],656,557,26,
VTETLEEITGY [Peptide 9012.0178],20,> 20000,11300,
MLETLNNTEY [Peptide 1580.24],36,,1120,
ISEYRHYQY [Peptide 78.0254],46,853,81,
RTDSVILNVLY [Peptide 9012.0162],14,954,8.5,
VAELVHFLLL,,,,binding to HLA-A24 (column 6; no allele head shown for these rows) (HLA-A24): 0.0018
LFTDLRIVY [Peptide 78.0378],,12,89,
ESNSLKCLRY [Peptide 1580.26],359,7510,604,
QAEPDRAHY [Peptide 78.0244],3270,> 20000,16,
KAGLLIIVL,,,,binding to HLA-A24 (column 6; no allele head shown for these rows) (HLA-A24): 0
EYRHYNYSVY [Peptide 78.0180],> 20000,16000,253,
ELDPVDLLCY [Peptide 78.0017],26,,12700,
YSKVSEFRWY [Peptide 78.0009],539,4510,,
GNEKTYFKY [Peptide 86.0160],2300,319,739,

Sequence,IC50 (HLA-A1 (A*0101)) [nM],IC50 (A*2902 [3]) [nM],IC50 (A*3002 [4]) [nM],other results
LFYSKVRKY [Peptide 78.0384],> 20000,201,35,
NTDILTVTY [Peptide 1593.17],22,,2000,
YSRIRELRY [Peptide 78.0253],308,6280,,
LTEITGYLY [Peptide 9012.0126],16,25,151,
KLNWASQIY [Peptide 1595.09],11300,,,IC50 (HLA-A3.2 (A*0301)): 63 nM; IC50 (HLA-A11 (A*1101)): 950 nM; IC50 (A31 (A*3101)): > 20 µM; IC50 (A*3301): > 20 µM; IC50 (A*6801): > 20 µM; IC50 (A*2601): > 20000 nM; IC50 (A*2902 [1]): 108 nM; IC50 (A*3002 [2]): 2.9 nM
NTLVKHHMY [Peptide 9018.0009],363,,,IC50 (A*2601): 7370 nM; IC50 (A*2902 [1]): 45 nM; IC50 (A*3002 [2]): 69 nM
SFEPIPIHY [Peptide 9015.0001],> 20000,,,IC50 (A*2601): 953 nM; IC50 (A*2902 [1]): 9.4 nM; IC50 (A*3002 [2]): 191 nM
LTDDSDIAYY [Peptide 1580.12],6.4,,,IC50 (A*2601): 738 nM; IC50 (A*2902 [1]): 3980 nM; IC50 (A*3002 [2]): 293 nM
LSDISEYRHY [Peptide 1549.45],27,14500,,
GYFPDWQNY [Peptide 1605.15],> 20000,,,IC50 (A*2601): > 20000 nM; IC50 (A*2902 [1]): 659 nM; IC50 (A*3002 [2]): 48 nM
KFYSKISEY [Peptide 78.0363],> 20000,1590,9.5,
ETWETWWMDY [Peptide 9015.0168],91,,,IC50 (A*2601): 2.9 nM; IC50 (A*2902 [1]): 5120 nM; IC50 (A*3002 [2]): 601 nM
VTRRAKGWFY [Peptide 9018.0013],1.5,,,IC50 (A*2601): 15 nM; IC50 (A*2902 [1]): 21 nM; IC50 (A*3002 [2]): 3.3 nM
GLDDQLIHLY [Peptide 9018.0024],11,,,IC50 (A*2601): 1420 nM; IC50 (A*2902 [1]): 432 nM; IC50 (A*3002 [2]): 56 nM
HMDRELHPEY [Peptide 9018.0005],5.1,,,IC50 (A*2601): 6.8 nM; IC50 (A*2902 [1]): 13 nM; IC50 (A*3002 [2]): 3.6 nM
ISNYTDTIY [Peptide 9015.0007],104,,,IC50 (A*2601): 6100 nM; IC50 (A*2902 [1]): 141 nM; IC50 (A*3002 [2]): 36 nM
ETKLGKAGY [Peptide 9015.0023],> 20000,,,IC50 (A*2601): 21 nM; IC50 (A*2902 [1]): > 20000 nM; IC50 (A*3002 [2]): 3900 nM
RFHNIMGRW [Peptide 78.0381],> 20000,> 20000,27,
WKSLVKHHMY [Peptide 9015.0177],> 20000,,,IC50 (A*2601): > 20000 nM; IC50 (A*2902 [1]): > 20000 nM; IC50 (A*3002 [2]): 148 nM
AFTDLTIVY [Peptide 78.0348],31,36,71,
VSDRANGWFY [Peptide 9018.0012],4.3,,,IC50 (A*2601): 191 nM; IC50 (A*2902 [1]): 932 nM; IC50 (A*3002 [2]): 18 nM
LKEYVLDLY [Peptide 78.0250],> 20000,3310,76,
RFHSIAGQY [Peptide 78.0376],> 20000,,1,

# Source: patent US9340577B2, “HLA binding motifs and peptides and their uses” (priority 1992, dated 2016)
